Assay results published in patent EP4772507A1, “AZAINDOLE COMPOUND AND MEDICAL DRUG” (Nippon Shinyaku Co., Ltd., priority 2023, dated 2025).

Experiments:
[1] = target: T1, C-terminal catalytic domain of MALT1 (amino acid residues 329-824) (Homo sapiens, UniProt Q9UDY8); test: MALT1 protease inhibitory activity (enzyme activity inhibition assay, fluorogenic substrate); assay type: biochemical; settings: substrate Ac-Leu-Arg-Ser-Arg-AMC 50 µM; 30°C for 2 hours; fluorescence
T1 construct: C-terminal catalytic domain of MALT1 (amino acid residues 329-824)
T1 sequence (Q9UDY8 329-824): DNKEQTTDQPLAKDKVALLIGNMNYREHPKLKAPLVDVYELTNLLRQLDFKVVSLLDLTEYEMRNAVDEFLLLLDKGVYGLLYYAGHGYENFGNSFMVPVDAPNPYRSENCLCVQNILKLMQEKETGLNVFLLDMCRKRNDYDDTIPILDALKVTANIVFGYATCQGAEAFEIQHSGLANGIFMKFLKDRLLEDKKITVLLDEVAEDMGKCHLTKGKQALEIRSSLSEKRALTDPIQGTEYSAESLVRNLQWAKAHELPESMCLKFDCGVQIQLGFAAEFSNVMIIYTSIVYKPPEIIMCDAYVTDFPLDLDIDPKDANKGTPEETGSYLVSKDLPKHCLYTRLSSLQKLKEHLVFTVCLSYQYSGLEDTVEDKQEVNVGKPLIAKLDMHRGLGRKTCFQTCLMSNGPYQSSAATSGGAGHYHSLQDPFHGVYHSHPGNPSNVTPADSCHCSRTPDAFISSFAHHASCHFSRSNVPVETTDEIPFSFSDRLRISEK
Experimental: To evaluate the enzyme inhibitory activity of a test substance against MALT1, an enzyme activity inhibition assay was conducted using the C-terminal catalytic domain of MALT1 (amino acid residues 329-824).
A test substance was prepared at a concentration of 10 mM in dimethyl sulfoxide (DMSO) and further diluted with DMSO to obtain final concentrations of 1000, 100, 10, 1, and 0.1 µM. The solutions were further diluted 25-fold with an assay buffer to prepare final test substance solutions. The composition of the assay buffer was 200 mM Tris/HCl HEPES (pH 7.5), 0.8 M Na citrate, 100 µM DTT, and 0.05% CHAPS.
The test substance solution was added to a 384-well black plate (#6007270, PerkinElmer) in an amount of 5 µL per well (n = 2; final concentrations of 10000, 1000, 100, 10, 1, and 0.1 nM), followed by the addition of 10 µL of MALT1 enzyme and finally 5 µL of a substrate solution (Ac-Leu-Arg-Ser-Arg-AMC, Peptide Institute, Inc.; final concentration in the reaction mixture: 50 µM), and after stirring, the mixture was allowed to react at 30°C for 2 hours. Fluorescence (excitation: 380 nm, emission: 460 nm) was detected using a microplate reader (EnVision, PerkinElmer).
Using the measurement data, non-linear regression analysis based on a 2-parameter logistic model was performed with Spotfire (PerkinElmer) to calculate IC50.

[2] = system: HEK293/API2-MALT1/NF-κB reporter cells; test: Inhibition of reporter activity in HEK293/API2-MALT1/NF-κB reporter cells; assay type: cell-based; settings: Homo sapiens, 24 hours with test substance, One-glo luminescence
Experimental: The API2-MALT1 fusion protein, expressed in MALT lymphoma, is known to constitutively activate the NF-κB pathway. To evaluate the inhibitory effect of the test substance on the NF-κB pathway in cells, a reporter activity inhibition test was conducted using HEK293/API2-MALT1/NF-κB reporter cells.
(§1) The test substance was prepared at a concentration of 10 mM in dimethyl sulfoxide (DMSO) and further diluted with DMSO to each of concentrations of 1000, 300, 100, and 10 µM. The solutions were further diluted 100-fold with DMEM medium containing 10% FBS to prepare test substance solutions.
HEK293/API2-MALT1/NF-κB reporter cells and 293T/CMV reporter cells (used as a negative control) were cultured in DMEM medium containing 10% FBS. Into a 384-well plate (#781080, Greiner), 6,000 cells were seeded in 30 µL per well, and after culturing for 24 hours, 3.3 µL of the adjusted test substance solution was added thereto (final concentrations: 10,000, 1,000, 100, and 10 nM). After culturing for 24 hours at 37°C in a 5% CO2 incubator, 33 µL of One-glo (Promega) was added to each well. After a 5-minute incubation at room temperature, luminescence was detected using a microplate reader (EnVision, PerkinElmer).
Using the measurement data, non-linear regression analysis was performed with the SAS system (SAS Institute Inc.) to estimate IC50.

OCI-Ly3 cell lines = test: Proliferation inhibition test, ABC-DLBCL cell line OCI-Ly3; assay type: cell-based; settings: Homo sapiens; OCI-Ly3 (ABC-DLBCL, NF-κB pathway-dependent); 96 hours; Cell Counting Kit-8; read-out: Proliferation inhibitory activity against OCI-Ly3 IC50
Experimental: (§2) In ABC-DLBCL cell lines, the NF-κB pathway is constitutively activated due to mutations in the B-cell receptor pathway. To evaluate the proliferation inhibitory activity associated with the MALT1 inhibitory activity of the test substance, a proliferation inhibition test was conducted using ABC-DLBCL cell lines.
as §1, with “3,000, 1,000,” for “1000,”, “100, 30,” for “100,”, “IMDM” for “DMEM”
(§3) OCI-Ly3 cell lines (ABC-DLBCL, NF-κB pathway-dependent) were cultured in IMDM containing 10% FBS, and SU-DHL-4 cell lines (GCB-DLBCL, NF-κB pathway-independent, used as a negative control) were cultured in RPMI-1640 containing 10% FBS. Into a 96-well plate, 2,000 cells of the OCI-Ly3 cell line and 4,000 cells of the SU-DHL-4 cell line were seeded in 100 µL per well, and 11 µL of the adjusted test substance solution was added thereto (final concentrations: 10,000, 3,000, 1,000, 300, 100, 30, and 10 nM). After 96 hours of incubation at 37°C in a 5% CO2 incubator, 10 µL of Cell Counting Kit-8 (Dojindo Laboratories) was added to each well. After 4 hours of incubation at 37°C, absorbance at 450 nm was detected using a microplate reader (EnVision, PerkinElmer).
(§4) Using the measurement data, non-linear regression analysis based on a 2-parameter logistic model was performed with Spotfire (PerkinElmer) to estimate IC50 values.

SU-DHL-4 cell lines = test: Proliferation inhibition test, GCB-DLBCL cell line SU-DHL-4 (negative control line); assay type: cell-based; settings: Homo sapiens; SU-DHL-4 (GCB-DLBCL, NF-κB pathway-independent, negative control); 96 hours; Cell Counting Kit-8; read-out: Proliferation inhibitory activity against SU-DHL-4 IC50
Experimental: as §2
as §1, with “3,000, 1,000,” for “1000,”, “100, 30,” for “100,”, “IMDM” for “DMEM”
as §3, §4

[3] = Central nervous system (CNS) penetration study in mice; assay type: in vivo; settings: female, BALB/cCrSlc, mouse, ip, 30 mg/kg intraperitoneally, three hours later, cerebrum and plasma by LC-MS/MS, read-out: Brain-to-plasma concentration ratio (Kp value)
Experimental: To evaluate the central nervous system (CNS) penetration of a test substance, a central nervous system penetration study was conducted using mice.
Six-week-old female BALB/cCrSlc mice (Japan SLC) were used. The test substance suspended in 0.5% methylcellulose was intraperitoneally administered to mice at a dose of 30 mg/kg. Three hours later, blood was collected from the abdominal vena cava under isoflurane anesthesia, and plasma was obtained by centrifugation. After exsanguination from the abdominal vena cava, the cerebrum was collected.
The drug concentrations of the collected plasma and cerebrum were measured by LC-MS/MS. To determine the brain penetration of the drug, the brain-to-plasma concentration ratio (Kp value) was calculated.

Row | IC50 [1] | IC50 (OCI-Ly3 cell lines) | IC50 (SU-DHL-4 cell lines) | Kp at 3 h [3] | Structure (SMILES) | IC50 [2]
1 | 45 nM | 620 nM | 5400 nM | 1.6 | C[C@@H]1CC(C(=O)c2cn(C3COC3)c3nc(-n4nccn4)c(Cl)cc23)C[C@@H](C)N1c1ncc(F)cc1I (stereo partly drawn) [Example 1, [5-chloro-1-(oxetan-3-yl)-6-(2H-1,2,3-triazol-2-yl)-1H-pyrrolo[2,3-b]pyridin-3-yl][(2R,6R)-1-(5-fluoro-3-iodopyridin-2-yl)-2,6-dimethylpiperidin-4-yl]methanone] | 170 nM
2 | 18 nM | 300 nM | 7200 nM | 1.2 | C[C@@H]1CC(C(=O)c2cn(C)c3nc(-n4nccn4)c(Cl)cc23)C[C@@H](C)N1c1ncc(F)cc1I (stereo partly drawn) [Example 2, [5-chloro-1-methyl-6-(2H-1,2,3-triazol-2-yl)-1H-pyrrolo[2,3-b]pyridin-3-yl][(2R,6R)-1-(5-fluoro-3-iodopyridin-2-yl)-2,6-dimethylpiperidin-4-yl]methanone] | 60 nM
3 | 43 nM | 580 nM | 6300 nM | 0.73 | C[C@@H]1CC(C(=O)c2cn(CC#N)c3nc(-n4nccn4)c(Cl)cc23)C[C@@H](C)N1c1ncc(F)cc1I (stereo partly drawn) [Example 3, {5-chloro-3-[(2R,6R)-1-(5-fluoro-3-iodopyridin-2-yl)-2,6-dimethylpiperidin-4-carbonyl]-6-(2H-1,2,3-triazol-2-yl)-1H-pyrrolo[2,3-b]pyridin-1-yl}acetonitrile] | 200 nM
4 | 35 nM | 310 nM | 3600 nM | 0.12 | CC(=O)N1CC(n2cc(C(=O)C3C[C@@H](C)N(c4ncc(F)cc4I)[C@H](C)C3)c3cc(Cl)c(-n4nccn4)nc32)C1 (stereo partly drawn) [Example 5, 1-(3-{5-chloro-3-[(2R,6R)-1-(5-fluoro-3-iodopyridin-2-yl)-2,6-dimethylpiperidin-4-carbonyl]-6-(2H-1,2,3-triazol-2-yl)-1H-pyrrolo[2,3-b]pyridin-1-yl}azetidin-1-yl)ethan-1-one] | 160 nM
5 | 13 nM | 150 nM | 2300 nM | 0.83 | Cn1cc(C(=O)c2cnn(-c3cncc4c(F)cccc34)c2C(F)(F)F)c2cc(Cl)c(-n3nccn3)nc21 [Example 6, [5-chloro-1-methyl-6-(2H-1,2,3-triazol-2-yl)-1H-pyrrolo[2,3-b]pyridin-3-yl][1-(8-fluoroisoquinolin-4-yl)-5-(trifluoromethyl)-1H-pyrazol-4-yl]methanone] | 75 nM
6 | 25 nM | 130 nM | 3200 nM | 0.52 | CCn1cc(C(=O)c2cnn(-c3cncc4c(F)cccc34)c2C(F)(F)F)c2cc(Cl)c(-n3nccn3)nc21 [Example 7, [5-chloro-1-ethyl-6-(2H-1,2,3-triazol-2-yl)-1H-pyrrolo[2,3-b]pyridin-3-yl][1-(8-fluoroisoquinolin-4-yl)-5-(trifluoromethyl)-1H-pyrazol-4-yl]methanone] | 150 nM
7 | 39 nM | 110 nM | 2400 nM | 0.52 | CCCn1cc(C(=O)c2cnn(-c3cncc4c(F)cccc34)c2C(F)(F)F)c2cc(Cl)c(-n3nccn3)nc21 [Example 8, [5-chloro-1-propyl-6-(2H-1,2,3-triazol-2-yl)-1H-pyrrolo[2,3-b]pyridin-3-yl][1-(8-fluoroisoquinolin-4-yl)-5-(trifluoromethyl)-1H-pyrazol-4-yl]methanone] | 280 nM
8 | 67 nM | 440 nM | 6000 nM | 1.7 | C[C@@H]1CC(C(=O)c2cn(C3COC3)c3nc(-c4ncccn4)c(Cl)cc23)C[C@@H](C)N1c1ncc(F)cc1I (stereo partly drawn) [Example 10, [5-chloro-1-(oxetan-3-yl)-6-(pyrimidin-2-yl)-1H-pyrrolo[2,3-b]pyridin-3-yl][(2R,6R)-1-(5-fluoro-3-iodopyridin-2-yl)-2,6-dimethylpiperidin-4-yl]methanone] | 140 nM
9 | 54 nM | 290 nM | 8900 nM | 3 | C[C@@H]1CC(C(=O)c2cn(C)c3nc(-c4ncccn4)c(Cl)cc23)C[C@@H](C)N1c1ncc(F)cc1I (stereo partly drawn) [Example 11, [5-chloro-1-methyl-6-(pyrimidin-2-yl)-1H-pyrrolo[2,3-b]pyridin-3-yl][(2R,6R)-1-(5-fluoro-3-iodopyridin-2-yl)-2,6-dimethylpiperidin-4-yl]methanone] | 230 nM

Row | Structure (SMILES) | IC50 [1] | IC50 (OCI-Ly3 cell lines) | IC50 (SU-DHL-4 cell lines) | Kp at 3 h [3] | IC50 [2]
10 | C[C@@H]1CC(C(=O)c2cn(CCCO)c3nc(-c4ncccn4)c(Cl)cc23)C[C@@H](C)N1c1ncc(F)cc1I (stereo partly drawn) [Example 9, [5-chloro-1-(3-hydroxypropyl)-6-(pyrimidin-2-yl)-1H-pyrrolo[2,3-b]pyridin-3-yl][(2R,6R)-1-(5-fluoro-3-iodopyridin-2-yl)-2,6-dimethylpiperidin-4-yl]methanone] | 69 nM | 480 nM | 5100 nM | 1.4 | 140 nM
